In the series the test system is fasted anesthetized Sprague-Dawley male rats. To be noted: for % Maximum Decrease 0-60 mins (blood glucose): sodium bovine insulin 0.5 mg/kg, 1 mL peanut oil, intracolonic bolus, n = 3-4. The text has this:
An animal model commonly known as the "intracolonic ligated model" was employed for testing formulations. Surgical preparation of a fasted anesthetized 0.3-0.5 kg Sprague-Dawley male rats proceeded as follows. A segment of proximal colon was isolated and the colon was flushed of fecal materials. The segment was ligated at both ends while a catheter was placed in the lumen and exteriorized above the skin for delivery of test formulation. The colonic contents were flushed out and the colon was returned to the abdomen of the animal. Depending on the experimental set up, the test formulation was added after the segment was filled with 1 mL/kg of 20 mM sodium phosphate buffer, pH 7.4, to more accurately simulate the actual colon environment in a clinical situation.
Rats were allowed to equilibrate for approximately 1 hour after surgical preparation and prior to exposure to each test formulation. Immediately prior to test solution administration, a 0.3-0.5 mL blood sample was taken from the jugular catheter of the rats and analyzed for glucose content using an Ames GlucometerM® blood glucose meter utilizing Glucostix® reagent strips. Withdrawn blood was replaced with an equal volume of heparinized Ringer's. Sodium bovine insulin was formulated to be delivered at a dose of 0.5 mg/kg body weight. Initially, all candidate enhancers were tested at a concentration of 300 mM. […] The solutes (enhancer and insulin) were suspended in 1 mL peanut oil (except where noted) and mixed using a vortex mixer. Test solutions were vortexed immediately prior to aspiration into individual delivery syringes.
After determination of baseline blood glucose levels, the test solution was administered as an intracolonic bolus and delivered at 1 ml/kg adjusting for either the 100 μl or 250 μl dead volume of the colonic catheter. Blood samples obtained from the jugular catheter were taken at 0, 5, 15, 30, 60, 120, 180 and 240 minutes and analyzed for blood glucose concentration. At the end of the 4 hour test period, the rats were euthanized with an overdose of pentobarbital. Colonic segments from each rat were excised and opened longitudinally along the anti-mesenteric border. Each segment was observed macroscopically for irritation and any abnormality noted. The excised colons were placed on graph paper and measured to approximate colonic surface area. Blood glucose dynamics are reported as the percent change from initial blood glucose levels.
Rats were prepared as described in EXAMPLE 1. […] The open symbols denote the formulations delivered in oil whereas the closed symbol denotes the formulation without oil.

Data on seven compounds can be found in patent publication US5817624A, “Permeation enhancer compositions for increased absorption of therapeutic proteins through the colonic membrane” (Alza Corporation, priority 1995, dated 1998).

SMILES strings stand for the structures. “And” between values parts separate entries of the source, which are not always exact repeats. Equal entries are not always repeated. Where two headings read alike, the source gives them in different places.

For the compound `O=C([O-])c1cc(O)ccc1O.[Na+]` [2,5-Dihydroxybenzoic acid, Na salt], the “% Maximum Decrease 0-60 mins (blood glucose)” value (from here on “% Maximum Decrease 0-60 mins”) (enhancer 300 mM) is 1% and 9%. With `[Cl-].[Na+]` [NaCl], for the setting “enhancer 300 mM”, the “% Maximum Decrease 0-60 mins” value was determined as 2%. In the case of `Nc1ccc(O)c(C(=O)[O-])c1.[Na+]` [5-Amino salicylic acid, Na salt], the “% Maximum Decrease 0-60 mins” value stood at 13% (enhancer 100 mM) and 13% (enhancer 300 mM). Consider `O=C([O-])c1ccccc1O.[Na+]` [Na Salicylate, sodium salicylate], for which the rats that died is given as 2/4 (enhancer 250 mM with insulin 0.5 mg/kg in 1/8 mL peanut oil); 4/4 (enhancer 600 mM with insulin 0.5 mg/kg and peanut oil, death due to low blood glucose levels). Further, for the setting “enhancer 300 mM formulated without insulin”, the “effect on blood glucose levels over a 4 hour period” value is “no effect”. Besides, the “decrease in fasting blood glucose levels from pre-exposure levels (significance)” value (enhancer 300 mM with sodium bovine insulin (0.5 mg/kg) and peanut oil) was “significant decrease”. Take `COc1ccc(O)c(C(=O)[O-])c1.[Na+]` [5-Methoxysalicylic acid, Na salt]: for the setting “enhancer 300 mM”, the “% Maximum Decrease 0-60 mins” value is 9%. Still for that read-out and setting: in the case of `O=C([O-])c1ccccc1.[Na+]` [Benzoic acid, Na salt] it was 0%; in that of `Nc1ccc(C(=O)[O-])c(O)c1.[Na+]` [4-Amino salicylic acid, Na salt], 10%.
